# Values joined by “and” are separate entries in the source; they are usually repeats but may differ in a detail not shown here. Identical values can stand only once. Like-named read-outs stand apart in the source and are kept apart here. Where a SMILES comes first, the peptide text is derived from it. Bridges are numbered along the chain shown (N, C = ends). [ ]: non-standard residue; d: D form. The star is where a group is joined. Ileψ(thiazoline)Cys = CC[C@H](C)[C@H](N)C1=N[C@H](C(=O)*)CS1; dOrn = NCCC[C@@H](N)C(=O)O
# Key:
# K. aridum = assay: susceptibility of K. aridum to antibiotics, disk diffusion method; type: cell-based, Kibdelosporangium aridum; details: for zone of inhibition at 5 µg/disc: Kibdelosporangium aridum, 168 h
# Protocol: Susceptibility of K. aridum to antibiotics was examined by placing BBL susceptibility disks on nutrient agar plates seeded with K. aridum as an overlay. Diameters of the zones of inhibition were measured after incubation for one week at 28° C.
# Chlortetracycline ([…]) produced 18 mm zones of inhibition; tetracycline (5 μg) 11-12 mm zones; rifampin (5 μg) 11-15 mm zones; novobiocin (5 μg) 27-28 mm zones. All zones of inhibition contained at least a few resistant colonies.
# rumen in vitro model [1] = assay: rumen in vitro model (growth promotant activity); parameters: species or system steer
# Protocol: The protocol for the rumen in vitro model is analogous to the protocol for the swine in vitro model with the following modifications:
# (1) A 400 kg steer is surgically prepared with a rumen cannula.
# (2) The animal is fed one time a day with the following ration:
# (3) Manipulation of VFA production is described as the production ratio of propionate as a percentage of total VFA produced.
# (4) Sampling of the material, via the cannula, is at 120 minutes post feeding.
# Strep. faecilis HH34358 = type: cell-based; details: Table A
# [2] = tested on: Proteus mirabilis SK & F 444; type: cell-based; details: Table A
# [3] = tested on: E. coli 12140 (SK & F 809); type: cell-based; details: Table A
# [4] = tested on: Kleb. pneumoniae 4200 (SK & F 798); type: cell-based; details: Table A
# [5] = tested on: Pseudomonas aeruginosa HH63; type: cell-based; details: Table A
# [6] = tested on: Serratia marcesens ATCC 13880; type: cell-based; details: Table A
# [7] = tested on: Proteus morgani SK & F 179; type: cell-based; details: Table A
# Providencia SK & F 276 = type: cell-based; details: Table A
# [8] = tested on: Enterobacter cloacae HH31254; type: cell-based; details: Table A
# [9] = tested on: Listeria monocytogenes SK & F 2255; type: cell-based; details: Table A
# [10] = tested on: Staph. aureus SK & F 2613; type: cell-based; details: Table B, Methicillin Sensitive
# [11] = tested on: Bacteroides fragilis ATCC 25285; type: cell-based; details: Table D, Anaerobes
# B. fragilis H145 = type: cell-based, Bacteroides fragilis; details: Table D, Anaerobes
# B. fragilis SK & F 3060 = type: cell-based, Bacteroides fragilis; details: Table D, Anaerobes
# B. loeochii SK & F 3087 = type: cell-based; details: Table D, Anaerobes
# [12] = tested on: B. thetaiotamicron SK & F 3089; type: cell-based; details: Table D, Anaerobes
# [13] = tested on: Fusobacterium nucleatum ATCC 25586; type: cell-based; details: Table D, Anaerobes
# Swine in vitro model = assay: swine in vitro model (growth promotant activity)
# solubility = type: physicochemical
# [14] = tested on: Salmonella gallinarum BC595; details: Table A
# [15] = tested on: Clostridium perfringens MCP-1; details: Table D, Anaerobes
# C. perfringens MCP-2 = details: Table D, Anaerobes
# rumen in vitro model [16] = assay: rumen in vitro model (growth promotant activity); parameters: species or system steer; remark: listed apart in the source
molecule,measurement,setting,value
CC(=O)OCC1=C(C(=O)O)N2C(=O)[C@@H](NC(=O)Cc3cccs3)[C@H]2SC1 [cephalothin],susceptibility of K. aridum,K. aridum; disk 30 μg,resistant
CN(C)C1C(=O)C(C(N)=O)=C(O)C2(O)C(=O)C3=C(O)c4c(O)cccc4C(C)(O)C3CC12 (centres unmarked) [tetracycline],zone of inhibition at 5 µg/disc,K. aridum,11 to 12 mm
CC[C@H](C)[C@H](N)C1=N[C@H](C(=O)N[C@@H](CC(C)C)C(=O)N[C@H](CCC(=O)O)C(=O)N[C@H](C(=O)N[C@H]2CCCCNC(=O)[C@H](CC(N)=O)NC(=O)[C@@H](CC(=O)O)NC(=O)[C@H](Cc3cnc[nH]3)NC(=O)[C@@H](Cc3ccccc3)NC(=O)[C@H]([C@@H](C)CC)NC(=O)[C@@H](CCCN)NC2=O)[C@@H](C)CC)CS1 [bacitracin] ({Ileψ(thiazoline)Cys}-L[dE]IK[dOrn]I[dF]H[dD]N; lactam 4-C),susceptibility of K. aridum,K. aridum; disk 2 units,resistant
Avoparcin,GLU (glucose),rumen in vitro model [1]; 0.5 ppm,116 % Control
same,Propionate %,rumen in vitro model [1]; 0.5 ppm,106 % Control
same,GLU (glucose),rumen in vitro model [1]; 5.0 ppm,166 % Control
same,Propionate %,rumen in vitro model [1]; 5.0 ppm,121 % Control
same,GLU (glucose),rumen in vitro model [1]; 50.0 ppm,141 % Control
same,Propionate %,rumen in vitro model [1]; 50.0 ppm,132 % Control
NC[C@H]1O[C@H](O[C@H]2[C@H](O)[C@@H](O[C@H]3O[C@H](CO)[C@@H](O)[C@H](N)[C@H]3O)[C@H](N)C[C@@H]2N)[C@H](N)C[C@@H]1O [tobramycin],susceptibility of K. aridum,K. aridum; disk 10 μg,resistant
CCC[C@@H]1C[C@@H](C(=O)N[C@@H]([C@H]2O[C@H](SC)[C@H](O)[C@@H](O)[C@H]2O)[C@H](C)Cl)N(C)C1 [clindamycin],susceptibility of K. aridum,K. aridum; disk 2 μg,resistant
CN[C@H]1C(=O)N[C@H]2C(=O)N[C@H](C(=O)N[C@H]3C(=O)N[C@H]4C(=O)N[C@H](C(=O)N[C@H](C(=O)O)c5cc(O)cc(O[C@H]6O[C@H](CO)[C@@H](O)[C@H](O)[C@@H]6O)c5-c5cc4ccc5O)[C@H](O)c4cc(Cl)c(c(Cl)c4)Oc4cc3cc(c4O[C@@H]3O[C@H](C(=O)O)[C@@H](O)[C@H](O)[C@H]3NC(=O)CCCCCCCCC(C)C)Oc3ccc(cc3Cl)[C@H]2O)c2cc(cc(O)c2Cl)Oc2cc1ccc2O,MIC,Strep. faecilis HH34358,0.8 µg/mL
same,MIC,[2],> 100 µg/mL
same,MIC,[3],> 100 µg/mL
same,MIC,[4],> 100 µg/mL
same,MIC,[5],> 100 µg/mL
same,MIC,[6],> 100 µg/mL
same,MIC,[7],> 100 µg/mL
same,MIC,Providencia SK & F 276,> 100 µg/mL
same,MIC,[8],> 100 µg/mL
same,MIC,[9],~ 0.4 μg/ml
same,MIC,[10],1.6 µg/mL
same,MIC,[11],32 µg/mL
same,MIC,B. fragilis H145,8 µg/mL
same,MIC,B. fragilis SK & F 3060,16 µg/mL
same,MIC,B. loeochii SK & F 3087,4 µg/mL
same,MIC,[12],32 µg/mL
same,MIC,[13],32 µg/mL
same,GLU (glucose),Swine in vitro model,191 % Control and 188 % Control and 96 % Control
same,Propionate %,rumen in vitro model [1],120 % Control
same,VFA (total of volatile fatty acids),rumen in vitro model [1],111 % Control
same,solubility,"solubility; H2O, methanol, dimethylsulfoxide, dimethylformamide",soluble
same,solubility,"solubility; ethanol, acetonitrile, acetone, diethylether, aliphatic hydrocarbons",insoluble
same,MIC,[14],> 100 µg/mL
same,MIC,[15],≤ 0.016 µg/mL
same,MIC,C. perfringens MCP-2,≤ 0.016 µg/mL
same,LYS (lysine),rumen in vitro model [16],110 % Control and 103 % Control
CN(C)[C@@H]1C(O)=C(C(N)=O)C(=O)[C@@]2(O)C(O)=C3C(=O)c4c(O)ccc(Cl)c4[C@@](C)(O)[C@H]3C[C@@H]12 [Chlortetracycline],zone of inhibition at 5 µg/disc,K. aridum,18 mm

# Reference: patent US4672036A, “Pure cultures of Kibdelsporangium aridum Shearer gen. nov., sp. nov. ATCC 39323 and mutants thereof” (SmithKline Beckman Corporation, priority 1985, dated 1987)
